Data published in US20080233432A1, “Composition, Method for Fabricating Light-Emitting Element, Light-Emitting Element, Light-Emitting Device, and Electronic Device” (Semiconductor Energy Laboratory Co., Ltd., priority 2007, published 2008).

Assay: solubility test of organometallic complexes in various solvents
Type: physicochemical
Conditions: for solubility x in anisole: solvent having aromatic ring: anisole; for solubility x in toluene: solvent having aromatic ring: toluene; for solubility x in 2-ethoxyethanol / solubility x in ethanol / solubility x in isopropanol / solubility x in methanol / solubility x in diethyl ether: solvent not having aromatic ring; for solubility x in 2-ethoxyethanol: alcohol: 2-ethoxyethanol; for solubility x in ethanol: alcohol: ethanol; for solubility x in isopropanol: alcohol: isopropanol; for solubility x in methanol: alcohol: methanol
Procedure: In Example 1, the solubility of an organometallic complex having a pyrazine skeleton as described in Embodiment Mode 1 was evaluated. The evaluation was performed by examining the solubility in various solvents. For the solvent, toluene and anisole were each used as a solvent having an aromatic ring. Further, diethyl ether which is ether, and 2-ethoxyethanol, isopropanol, ethanol, and methanol which are alcohols were each used as a solvent not having an aromatic ring.
In addition, the solubility of btp2Ir(acac) (a structural formula (101) given below), which is disclosed in Nonpatent Document 1 was evaluated as a comparative sample A. In addition, the solubility of Ir(ppy)2(acac) (a structural formula (102) given below) was evaluated as a comparative sample B.

Row | Structure (SMILES) | solubility x in anisole | solubility x in toluene | solubility x in 2-ethoxyethanol | solubility x in ethanol | solubility x in isopropanol | solubility x in methanol | solubility x in diethyl ether
1 | CC(=O)C=C(C)[O-].[Ir+3].[c-]1ccccc1-c1nccnc1-c1ccccc1.[c-]1ccccc1-c1nccnc1-c1ccccc1 [Sample 1] | ⊚ (a double circle in the case of x≧1.2) | ◯ (a circle in the case of 1.2>x≧0.9) | X (a cross in the case of x<0.6) | X (a cross in the case of x<0.6) | X (a cross in the case of x<0.6) | X (a cross in the case of x<0.6) | X (a cross in the case of x<0.6)
2 | CC(=O)C=C(C)[O-].Fc1c[c-]c(-c2nccnc2-c2ccc(F)cc2)cc1.Fc1c[c-]c(-c2nccnc2-c2ccc(F)cc2)cc1.[Ir+3] [Sample 2] | ⊚ (a double circle in the case of x≧1.2) | ◯ (a circle in the case of 1.2>x≧0.9) | X (a cross in the case of x<0.6) | X (a cross in the case of x<0.6) | X (a cross in the case of x<0.6) | X (a cross in the case of x<0.6) | X (a cross in the case of x<0.6)
3 | CC(=O)C=C(C)[O-].Cc1cnc(-c2[c-]cc(F)cc2)c(-c2ccc(F)cc2)n1.Cc1cnc(-c2[c-]cc(F)cc2)c(-c2ccc(F)cc2)n1.[Ir+3] [Sample 4] | ⊚ (a double circle in the case of x≧1.2) | ⊚ (a double circle in the case of x≧1.2) | ⊚ (a double circle in the case of x≧1.2) | X (a cross in the case of x<0.6) | X (a cross in the case of x<0.6) | X (a cross in the case of x<0.6) | ⊚ (a double circle in the case of x≧1.2)

The remaining lines, values ahead:

Row | solubility x in anisole | solubility x in toluene | solubility x in 2-ethoxyethanol | solubility x in ethanol | solubility x in isopropanol | solubility x in methanol | solubility x in diethyl ether | Structure (SMILES)
4 | ⊚ (a double circle in the case of x≧1.2) | ⊚ (a double circle in the case of x≧1.2) | ⊚ (a double circle in the case of x≧1.2) | ⊚ (a double circle in the case of x≧1.2) | ⊚ (a double circle in the case of x≧1.2) | X (a cross in the case of x<0.6) | X (a cross in the case of x<0.6) | Cc1cnc(-c2[c-]cc(F)cc2)c(-c2ccc(F)cc2)n1.Cc1cnc(-c2[c-]cc(F)cc2)c(-c2ccc(F)cc2)n1.O=C([O-])c1ccccn1.[Ir+3] [Sample 5]
5 | ⊚ (a double circle in the case of x≧1.2) | ⊚ (a double circle in the case of x≧1.2) | ⊚ (a double circle in the case of x≧1.2) | X (a cross in the case of x<0.6) | X (a cross in the case of x<0.6) | X (a cross in the case of x<0.6) | X (a cross in the case of x<0.6) | CC(C)c1cnc(-c2[c-]cc(F)cc2)c(-c2ccc(F)cc2)n1.CC(C)c1cnc(-c2[c-]cc(F)cc2)c(-c2ccc(F)cc2)n1.O=C([O-])c1ccccn1.[Ir+3] [Sample 7]
6 | ⊚ (a double circle in the case of x≧1.2) | ⊚ (a double circle in the case of x≧1.2) | ⊚ (a double circle in the case of x≧1.2) | Δ (a triangle in the case of 0.9>x≧0.6) | Δ (a triangle in the case of 0.9>x≧0.6) | X (a cross in the case of x<0.6) | ⊚ (a double circle in the case of x≧1.2) | CC(=O)C=C(C)[O-].Cc1nc(C(C)C)cnc1-c1[c-]cccc1.Cc1nc(C(C)C)cnc1-c1[c-]cccc1.[Ir+3] [Sample 9]
7 | ⊚ (a double circle in the case of x≧1.2) | ⊚ (a double circle in the case of x≧1.2) | ⊚ (a double circle in the case of x≧1.2) | X (a cross in the case of x<0.6) | X (a cross in the case of x<0.6) | X (a cross in the case of x<0.6) | ⊚ (a double circle in the case of x≧1.2) | CC(=O)C=C(C)[O][Ir]([c]1ccccc1-c1ncc(-c2ccccc2)nc1-c1ccccc1)[c]1ccccc1-c1ncc(-c2ccccc2)nc1-c1ccccc1 [Sample 10, (acetylacetonato)bis(2,3,5-triphenylpyrazinato)iridium(III)]
